Laboratory results as given in patent US20220274961A1, “SUBSTITUTED FUSED BI- OR TRI- HETEROCYCLIC COMPOUNDS AS EHMT2 INHIBITORS” (priority 2016, published 2022).

Biological target: T1, EHMT2 (Homo sapiens, UniProt Q96KQ7)
T1 construct: endogenous in cells; host or cells: MDA-MB-231 (ATCC)
T1 sequence (Q96KQ7 1-1210): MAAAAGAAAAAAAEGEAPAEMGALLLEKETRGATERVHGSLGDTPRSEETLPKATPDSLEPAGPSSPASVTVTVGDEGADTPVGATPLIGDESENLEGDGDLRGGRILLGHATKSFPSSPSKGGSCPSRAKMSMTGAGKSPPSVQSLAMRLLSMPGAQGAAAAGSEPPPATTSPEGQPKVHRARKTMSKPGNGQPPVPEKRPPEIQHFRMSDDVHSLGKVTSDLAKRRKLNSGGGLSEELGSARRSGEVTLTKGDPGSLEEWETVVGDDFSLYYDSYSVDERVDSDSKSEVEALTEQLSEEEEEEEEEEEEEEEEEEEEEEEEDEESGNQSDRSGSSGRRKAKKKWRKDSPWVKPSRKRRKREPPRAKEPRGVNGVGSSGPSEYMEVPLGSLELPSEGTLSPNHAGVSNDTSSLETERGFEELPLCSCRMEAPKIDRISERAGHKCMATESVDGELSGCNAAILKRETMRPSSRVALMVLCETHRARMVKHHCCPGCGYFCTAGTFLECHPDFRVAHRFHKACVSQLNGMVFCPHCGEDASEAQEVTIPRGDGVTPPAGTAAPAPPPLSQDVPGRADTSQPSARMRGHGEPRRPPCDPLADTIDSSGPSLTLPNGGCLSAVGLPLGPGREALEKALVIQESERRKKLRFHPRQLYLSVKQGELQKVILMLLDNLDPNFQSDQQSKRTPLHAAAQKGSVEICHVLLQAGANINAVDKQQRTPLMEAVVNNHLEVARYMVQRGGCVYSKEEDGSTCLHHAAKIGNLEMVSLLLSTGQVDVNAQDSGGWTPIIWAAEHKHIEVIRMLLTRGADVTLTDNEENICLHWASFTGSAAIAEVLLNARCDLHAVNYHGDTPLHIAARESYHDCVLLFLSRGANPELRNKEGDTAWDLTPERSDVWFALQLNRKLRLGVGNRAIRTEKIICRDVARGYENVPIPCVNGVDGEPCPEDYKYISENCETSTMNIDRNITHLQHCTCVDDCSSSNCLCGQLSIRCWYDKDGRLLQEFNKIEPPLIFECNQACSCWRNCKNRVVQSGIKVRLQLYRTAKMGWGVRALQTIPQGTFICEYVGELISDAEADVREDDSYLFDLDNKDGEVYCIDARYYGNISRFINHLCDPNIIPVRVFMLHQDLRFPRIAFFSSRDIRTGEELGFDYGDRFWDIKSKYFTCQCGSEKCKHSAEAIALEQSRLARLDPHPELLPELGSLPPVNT
Assay: MDA-MB-231 H3K9me2 in-cell Western assay (EHMT2 ICW)
Format: cell-based
Conditions: MDA-MB-231 cells, H3K9me2 in-cell Western; read-out: EHMT2 ICW (IC50 μM)
Excerpt: MDA-MB-231 cell line was purchased from ATCC (Manassas, Va., USA). RPMI/Glutamax medium, Penicillin-Streptomycin, Heat Inactivated Fetal Bovine Serum, and D-PBS were purchased from Life Technologies (Grand Island, N.Y., USA). Odyssey blocking buffer, 800CW goat anti-mouse IgG (H+L) antibody, and Licor Odyssey Infrared Scanner were purchased from Licor Biosciences, Lincoln, Nebr., USA. H3K9me2 mouse monoclonal antibody (Cat #1220) was purchased from Abcam (Cambridge, Mass., USA). 16% Paraformaldehyde was purchased from Electron Microscopy Sciences, Hatfield, Pa., USA). MDA-MB-231 cells were maintained in complete growth medium (RPMI supplemented with 10% v/v heat inactivated fetal bovine serum) and cultured at 37° C. under 5% CO2. UNC0638 was purchased from Sigma-Aldrich (St. Louis, Mo., USA).
General Procedure for MDA-MB-231 HEK9me2 in-cell Western Assay. Compound (100 nL) was added directly to 384-well cell plate. MDA-MB-231 cells (ATCC) were seeded in assay medium (RPMI/Glutamax supplemented with 10% v/v heat inactivated fetal bovine serum and 1% Penicillin/Streptomycin, Life Technologies) at a concentration of 3,000 cells per well to a Poly-D-Lysine coated 384-well cell culture plate with 50 μL per well. Plates were incubated at 37° C., 5% CO2 for 48 hours (BD Biosciences 356697). Plates were incubated at room temperature for 30 minutes and then incubated at 37° C., 5% CO2 for additional 48 hours. After the incubation, 50 μL per well of 8% paraformaldehyde (Electron Microscopy Sciences) in PBS was added to the plates and incubated at room temperature for 20 minutes. Plates were transferred to a Biotek 406 plate washer and washed 2 times with 100 μL per well of wash buffer (1×PBS containing 0.3% Triton X-100 (v/v)). Next, 60 μL per well of Odyssey blocking buffer (Licor Biosciences) was added to each plate and incubated for 1 hour at room temperature. Blocking buffer was removed and 20 μL of monoclonal primary antibody α-H3K9me2 (Abcam) diluted 1:800 in Odyssey buffer with 0.1% Tween 20 (v/v) were added and plates were incubated overnight (16 hours) at 4° C. Plates were washed 5 times with 100 μL per well of wash buffer. Next 20 μL per well of secondary antibody was added (1:500 800CW donkey anti-mouse IgG (H+L) antibody (Licor Biosciences), 1:1000 DRAQ5 (Cell Signaling Technology) in Odyssey buffer with 0.1% Tween 20 (v/v)) and incubated for 1 hour at room temperature. The plates were washed 5 times with […] wash buffer then 2 times with 100 μL per well of water. Plates were allowed to dry at room temperature then imaged on a Licor Odyssey Infrared Scanner (Licor Biosciences) which measured integrated intensity at 700 nm and 800 nm wavelengths. Both 700 and 800 channels were scanned.
% Inhibition Calculation. First, the ratio for each well was determined by:
Each plate included fourteen control wells of DMSO only treatment (Minimum Inhibition) as well as fourteen control wells (background wells) for maximum inhibition treated with control compound UNC0638 (Background wells).
The average of the ratio values for each well was calculated and used to determine the percent inhibition for each test well in the plate. Control compound was serially diluted three-fold in DMSO for a total of 10 test concentrations beginning at 1 μM. Percent inhibition was calculated as: […]
IC50 curves were generated using triplicate wells per concentration of compound. The IC50 is the concentration of compound at which measured methylation is inhibited by 50% as interpolated from the dose response curves. IC50 values were calculated using a non-linear regression (variable slope-four parameter fit model) with by the following formula:
where Top is fixed at 100% and Bottom is fixed to 0%, [I]=concentration of inhibitor, IC50=half maximal inhibitory concentration, and n=Hill Slope.

Q: Which IC50 does the source give for CCNc1nc2cc(OCCCN3CCCC3)c(OC)cc2n1C [Compound 27] here?
A: 0.1 to 1 µM

Q: With CCN1CC(COc2cc3nc(N)n(C4CCCC4)c3cc2OC)C1 [Compound 10, 1-cyclopentyl-5-((1-ethylazetidin-3-yl)methoxy)-6-methoxy-1H-benzo[d]imidazol-2-amine] as the molecule, how does the IC50 read?
A: 0.1 to 1 µM

Q: Which IC50 does the source give for COc1cc2c(cc1OCCCN1CCCC1)nc(N)n2CC(F)(F)F [Compound 11, 6-methoxy-5-(3-(pyrrolidin-1-yl)propoxy)-1-(2,2,2-trifluoroethyl)-1H-benzo[d]imidazole-2-amine] here?
A: 1 to 10 µM

Q: How did the IC50 turn out when COc1cc2c(cc1OCCCN1CCCC1)nc(NC1CCOCC1)n2C [Compound 29] was run?
A: 1 to 10 µM

Q: Which IC50 does the source give for CNc1nc2cc(OCCCN3CCCC3)c(OC)cc2n1C(C)C [Compound 36] here?
A: < 0.1 µM

Q: For COc1cc2c(cc1OCCCN1CCCC1)nc(N)n2C1CCCC1 [Compound 3, 1-cyclopentyl-6-methoxy-5-(3-(pyrrolidin-1-yl)propoxy)-1H-benzo[d]imidazol-2-amine], which IC50 is on record?
A: 0.1 to 1 µM

Q: For CCNC1=Nc2cc(CNCCN3CCC3)c(OC)cc2C12CCC2 [Compound 72], which IC50 is on record?
A: 1 to 10 µM

Q: CNc1nc2cc(OCCCN3CCCC3)c(OC)cc2n1C [Compound 8, 6-methoxy-N,1-dimethyl-5-(3-(pyrrolidin-1-yl)propoxy)-1H-benzo[d]imidazol-2-amine] was tested. Which IC50 did it give?
A: < 0.1 µM

Q: Which IC50 does the source give for COc1cc2c(cc1OC[C@H](O)CN1CCCC1)nc(NCC1CC1)n2C [Compound 34] here?
A: 0.1 to 1 µM

Q: For CCN1CC[C@@H](COc2cc3nc(N)n(C4CCCC4)c3cc2OC)C1 [Compound 9, 1-cyclopentyl-5-[[(3R)-1-ethylpyrrolidin-3-yl]methoxy]-6-methoxy-1H-1,3-benzodiazol-2-amine], which IC50 is on record?
A: 0.1 to 1 µM

Q: With COc1cc2c(cc1OCCCN1CCCC1)nc(NC(C)C)n2C [Compound 28] as the molecule, how does the IC50 read?
A: 1 to 10 µM
